The values below come from patent publication US5714467A, “Antibacterial and antimalarial hybrid peptides” (The Rockefeller University, priority 1993, dated 1998).

This data set relates to Sheep Red Cells. The data set is described as follows: lysis of sheep red blood cells (lysis assay or SRC plate assay). Type of data set: cell-based. The settings on record: for Lethal concentration, SRC = Sheep Red Cells: Table 3; for concentration lytic to sheep red blood cells: running text. As for the experimental part: These values were obtained by either the lysis assay normally used for melittin or by an adaptation of the antibacterial inhibition zone assay of the above-cited Hultmark et al articles to plates with sheep red cells (SRC). With respect to the latter, sterile agarose plates contained 6 ml of medium With 1% agarose, 0.9% NaCl and 10% SRC suspended in Alsevers solution. A dilution series of peptide was applied in 3 mm wells each loaded with 3 μl of the respective samples. The plates were incubated at 30° C. for 24 h, the zones were recorded and LC values calculated as described in the Hultmark et al articles. Clear zones were recorded after a few hours of incubation and the use of such data gave an LC value of the same order as readings after 24 h. This plate assay is faster and more convenient than the lysis assay normally used for melittin.

Setting [1] is: Table 2, no incubation footnote.
Where [2] appears, read: Table 2, footnote a: incubation overnight at 30° C. as well as at 37° C.

As to `CC[C@H](C)[C@H](NC(=O)CNC(=O)[C@@H](NC(=O)[C@H](CCCCN)NC(=O)[C@H](CCCCN)NC(=O)[C@H](Cc1ccccc1)NC(=O)[C@H](CC(C)C)NC(=O)[C@H](CCCCN)NC(=O)[C@H](Cc1c[nH]c2ccccc12)NC(=O)[C@@H](N)CCCCN)[C@@H](C)CC)C(=O)NCC(=O)N[C@@H](C)C(=O)N[C@H](C(=O)N[C@@H](CC(C)C)C(=O)N[C@@H](CCCCN)C(=O)N[C@H](C(=O)N[C@@H](CC(C)C)C(=O)N[C@H](C(=O)N[C@H](C(=O)NCC(N)=O)[C@@H](C)O)[C@@H](C)O)C(C)C)C(C)C` [CA(1-8)M(1-12)], the “Lethal concentration, Sheep Red Cells” value under setting [1] was more than 600 µM.
In the case of `CC[C@H](C)[C@H](NC(=O)CNC(=O)[C@@H](NC(=O)[C@H](CCCCN)NC(=O)[C@H](CCCCN)NC(=O)[C@H](Cc1ccccc1)NC(=O)[C@H](CC(C)C)NC(=O)[C@H](CCCCN)NC(=O)[C@H](Cc1c[nH]c2ccccc12)NC(=O)[C@@H](N)CCCCN)[C@@H](C)CC)C(=O)NCC(=O)N[C@@H](C)C(=O)N[C@H](C(=O)N[C@@H](CC(C)C)C(=O)N[C@@H](CCCCN)C(=O)N[C@H](C(=O)N[C@@H](CC(C)C)C(=O)N[C@H](C(=O)N[C@H](C(=O)NCC(=O)N[C@@H](CC(C)C)C(=O)N1CCC[C@H]1C(=O)N[C@@H](C)C(=O)N[C@@H](CC(C)C)C(=O)N[C@H](C(=O)N[C@@H](CO)C(N)=O)[C@@H](C)CC)[C@@H](C)O)[C@@H](C)O)C(C)C)C(C)C` [CA(1-8)M(1-18)], the “Lethal concentration, SRC = Sheep Red Cells” value came out at 600 µM.
For the compound `CC[C@H](C)[C@H](NC(=O)[C@H](CC(C)C)NC(=O)[C@H](C)NC(=O)[C@@H]1CCCN1C(=O)[C@H](CC(C)C)NC(=O)CNC(=O)[C@@H](NC(=O)[C@@H](NC(=O)[C@H](CC(C)C)NC(=O)[C@@H](NC(=O)[C@H](CCCCN)NC(=O)[C@H](CC(C)C)NC(=O)[C@@H](NC(=O)[C@H](C)NC(=O)CNC(=O)[C@@H](NC(=O)CNC(=O)[C@H](CCC(=O)O)NC(=O)[C@@H](NC(=O)[C@H](CCCCN)NC(=O)[C@H](CCCCN)NC(=O)[C@H](Cc1ccccc1)NC(=O)[C@H](CC(C)C)NC(=O)[C@H](CCCCN)NC(=O)[C@H](Cc1c[nH]c2ccccc12)NC(=O)[C@@H](N)CCCCN)[C@@H](C)CC)[C@@H](C)CC)C(C)C)C(C)C)[C@@H](C)O)[C@@H](C)O)C(N)=O` [CA(1-9)M(1-17)], the “Lethal concentration, SRC = Sheep Red Cells” value worked out at 600 µM.
For the compound `CC[C@H](C)[C@H](NC(=O)CNC(=O)[C@H](CCC(N)=O)NC(=O)CNC(=O)[C@@H](NC(=O)[C@H](CCCCN)NC(=O)[C@H](CCC(=O)O)NC(=O)[C@@H](NC(=O)[C@H](CCCCN)NC(=O)[C@H](CCCCN)NC(=O)[C@H](Cc1ccccc1)NC(=O)[C@H](CC(C)C)NC(=O)[C@H](CCCCN)NC(=O)[C@H](Cc1c[nH]c2ccccc12)NC(=O)[C@@H](N)CCCCN)[C@@H](C)CC)C(C)C)C(=O)NCC(=O)N[C@@H](C)C(=O)N[C@H](C(=O)N[C@@H](CC(C)C)C(=O)N[C@@H](CCCCN)C(=O)N[C@H](C(=O)N[C@@H](CC(C)C)C(=O)N[C@H](C(=O)N[C@H](C(=O)NCC(=O)N[C@@H](CC(C)C)C(N)=O)[C@@H](C)O)[C@@H](C)O)C(C)C)C(C)C` [CA(1-13)M(1-13)], the “concentration lytic to sheep red blood cells” value (shortened to “concentration lytic”) is not below 100 µM. Moreover, under setting [2], the “Lethal concentration, Sheep Red Cells” value is more than 200 µM. Besides, the “concentration lytic” value (listed as CA(1-13) M(1-13)) was “greater than 200 μM”.
As for `CC[C@H](C)[C@H](NC(=O)CNC(=O)[C@@H]1CCCN1C(=O)CNC(=O)[C@H](C)NC(=O)[C@H](CCCCN)NC(=O)[C@@H](NC(=O)[C@@H](NC(=O)CNC(=O)[C@H](CC(=O)O)NC(=O)[C@H](CCCNC(=N)N)NC(=O)[C@@H](NC(=O)[C@H](CC(N)=O)NC(=O)[C@H](CCC(N)=O)NC(=O)CNC(=O)[C@@H](NC(=O)[C@H](CCCCN)NC(=O)[C@H](CCC(=O)O)NC(=O)[C@@H](NC(=O)[C@H](CCCCN)NC(=O)[C@H](CCCCN)NC(=O)[C@H](Cc1ccccc1)NC(=O)[C@H](CC(C)C)NC(=O)[C@H](CCCCN)NC(=O)[C@H](Cc1c[nH]c2ccccc12)NC(=O)[C@@H](N)CCCCN)[C@@H](C)CC)C(C)C)[C@@H](C)CC)[C@@H](C)CC)[C@@H](C)CC)C(=O)NCC(=O)N[C@@H](C)C(=O)N[C@H](C(=O)N[C@@H](CC(C)C)C(=O)N[C@@H](CCCCN)C(=O)N[C@H](C(=O)N[C@@H](CC(C)C)C(=O)N[C@H](C(=O)N[C@H](C(=O)NCC(=O)N[C@@H](CC(C)C)C(N)=O)[C@@H](C)O)[C@@H](C)O)C(C)C)C(C)C` [CA(1-24)M(1-13)], the “concentration lytic” value was not below 100 µM. For the same compound, the “Lethal concentration, Sheep Red Cells” value under setting [2] is more than 200 µM.
Regarding `CC[C@H](C)[C@H](NC(=O)[C@H](CCC(N)=O)NC(=O)[C@@H](NC(=O)[C@H](C)NC(=O)[C@H](CCC(N)=O)NC(=O)CNC(=O)[C@@H](NC(=O)[C@@H](NC(=O)[C@H](C)NC(=O)[C@@H](NC(=O)[C@H](C)N)C(C)C)C(C)C)C(C)C)[C@@H](C)O)C(=O)N[C@@H](C)C(=O)N[C@@H](CCCCN)C(=O)N[C@@H](CCCCN)C(=O)N[C@@H](Cc1c[nH]c2ccccc12)C(=O)N[C@@H](CCCCN)C(=O)N[C@@H](CC(C)C)C(=O)N[C@@H](Cc1ccccc1)C(=O)N[C@@H](CCCCN)C(=O)N[C@@H](CCCCN)C(=O)N[C@H](C(=O)N[C@@H](CCC(=O)O)C(=O)N[C@@H](CCCCN)C(=O)N[C@H](C(=O)NCC(=O)N[C@@H](CCC(N)=O)C(N)=O)C(C)C)[C@@H](C)CC` [CA(25-37)CA(1-13)], the “Lethal concentration, Sheep Red Cells” value (Table 2, footnote b: incubation overnight at 30° C.) was more than 300 µM.
Regarding `CC[C@H](C)[C@H](NC(=O)CNC(=O)[C@H](CCCNC(=N)N)NC(=O)CNC(=O)[C@H](CCSC)NC(=O)[C@H](CCCCN)NC(=O)[C@H](CCC(=O)O)NC(=O)[C@@H](NC(=O)[C@H](CCCCN)NC(=O)[C@H](CCCCN)NC(=O)[C@H](Cc1ccccc1)NC(=O)[C@@H](NC(=O)[C@H](CCCCN)NC(=O)[C@H](Cc1c[nH]c2ccccc12)NC(=O)[C@@H](N)CCCCN)C(C)C)[C@@H](C)CC)C(=O)NCC(=O)N[C@@H](C)C(=O)N[C@H](C(=O)N[C@@H](CC(C)C)C(=O)N[C@@H](CCCCN)C(=O)N[C@H](C(=O)N[C@@H](CC(C)C)C(=O)N[C@H](C(=O)N[C@H](C(=O)NCC(=O)N[C@@H](CC(C)C)C(N)=O)[C@@H](C)O)[C@@H](C)O)C(C)C)C(C)C` [CB(1-13)M(1-13)], the “Lethal concentration, SRC = Sheep Red Cells” value was 400 µM.
In the case of `CC[C@H](C)[C@H](NC(=O)CN)C(=O)NCC(=O)N[C@@H](C)C(=O)N[C@H](C(=O)N[C@@H](CC(C)C)C(=O)N[C@@H](CCCCN)C(=O)N[C@H](C(=O)N[C@@H](CC(C)C)C(=O)N[C@H](C(=O)N[C@H](C(=O)NCC(=O)N[C@@H](CC(C)C)C(=O)N[C@@H](CCCCN)C(=O)N[C@@H](Cc1c[nH]c2ccccc12)C(=O)N[C@@H](CCCCN)C(=O)N[C@@H](CC(C)C)C(=O)N[C@@H](Cc1ccccc1)C(=O)N[C@@H](CCCCN)C(=O)N[C@@H](CCCCN)C(=O)N[C@H](C(=O)N[C@@H](CCC(=O)O)C(=O)N[C@@H](CCCCN)C(=O)N[C@H](C(=O)NCC(=O)N[C@@H](CCC(N)=O)C(N)=O)C(C)C)[C@@H](C)CC)[C@@H](C)O)[C@@H](C)O)C(C)C)C(C)C` [M(1-13)CA(1-13)], the “Lethal concentration, SRC = Sheep Red Cells” value is 80 µM. For the same compound, the “Lethal concentration, Sheep Red Cells” value under setting [1] came to 80 µM.
